Where two headings read alike, the source gives them in different places.
Legend:
TRKA^G667C mutant = assay: Multi-target kinase inhibitors in BaF3 cell proliferation assays (Table S3); assay type: cell-based, Murine
[1] = tested on: wild-type TRKA/B/C or solvent-front mutations; assay: as above; assay type: cell-based, Murine
[2] = tested on: TRKs-xDGF mutants TRKA-G667C, TRKB-G709C and TRKC-G696C in stable BaF3 models; assay: Western blot of xDFG mutant TRK signal pathway (Figure S2); assay type: cell-based, Murine; settings: even at 200 nM, 6 h
Experimental: Cells were treated with various concentrations of each tested compound for a designated time. Then cells were lysed using 1 × SDS sample lysis buffer (CST recommended) with protease and phosphatase inhibitors. […] The films were blocked with 5% fat-free milk in TBS solution containing 0.5% Tween-20 for 4 h at room temperature, then incubated with the corresponding primary antibody (1:1000–1:200) overnight at 4 °C. After washing with TBST, HRP-conjugated secondary antibody was incubated for 2 h. The protein signals were visualized by ECL Western Blotting Detection Kit (Thermo Scientific, Waltham, MA, USA), and detected with Amersham Imager 600 system (GE, Boston, MA, USA).

[3] = tested on: BaF3-CD74-TRKA-G667C cells; assay: Apoptosis by flow cytometry (Annexin V / 7-AAD); assay type: cell-based, Murine; settings: even at a concentration of 50 nM
Experimental: For analysis of the cell cycle, cells were harvested and washed twice with PBS after treatment for 24 h with indicated drugs or DMSO. […] The cells were then analyzed on a Guava easyCyte flow cytometer (Merck, Whitehouse Station, NJ, USA). For analysis of cell apoptosis, cells were harvested and washed twice with ice-cold PBS after treatment for 48 h with indicated drugs or DMSO. […] Finally, 400 μL of a 1 × BD binding buffer solution was replenished. The cells were then analyzed on a Guava easyCyte flow cytometer (Merck, Whitehouse Station, NJ, USA).

Parental BaF3 (+IL3) = assay: BaF3 cell proliferation, CCK-8 assay; settings: Mus musculus, BaF3, 72 h, read-out: IC50 (nM ± SD) Parental BaF3 (+IL3)
Experimental: (§1) Murine BaF3 cells were purchased from JRCB cell bank. The BaF3 cell lines, which stably express natively-fused TRKA/B/C or various point mutants, were self-established by following previously described procedures. Briefly, NTRK genes were totally synthesized and cloned into pCDNA3.1(+) vectors (Invitrogen, Carlsbad, CA, USA). […] Stable strains were established by selection of cells 2 weeks post-transfection with 800 μg/mL G418 (Merck, Whitehouse Station, NJ) and further selection after the withdrawal of interleukin-3 (IL-3, R&D) for 2 weeks. All of BaF3 stable cell lines were verified by DNA sequencing, protein expression and anti-proliferation activity against positive drugs. […] All cells were grown at 37 °C in a humidified 5% CO2 atmosphere.
(§2) Cells were placed in 96-well plates (5000~8000/well) in complete medium. […] IC50 values were calculated by concentration-response curve fitting using GraphPad Prism 5.0 software. Each IC50 value is expressed as mean ± SD.

BaF3 MPRIP-TRKA = assay: BaF3 cell proliferation, CCK-8 assay; settings: read-out: IC50 (nM ± SD) WT MPRIP-TRKA
Experimental: as §1, §2

BaF3 CD74-TRKA = assay: BaF3 cell proliferation, CCK-8 assay; settings: Mus musculus, BaF3, 72 h, read-out: IC50 (nM ± SD) WT CD74-TRKA
Experimental: as §1, §2

BaF3 QKI-TRKB = assay: BaF3 cell proliferation, CCK-8 assay; settings: Mus musculus, BaF3, 72 h, read-out: IC50 (nM ± SD) WT QKI-TRKB
Experimental: as §1, §2

BaF3 ETV6-TRKB = assay: BaF3 cell proliferation, CCK-8 assay; settings: Mus musculus, BaF3, 72 h, read-out: IC50 (nM ± SD) WT ETV6-TRKB
Experimental: as §1, §2

BaF3 EML4-TRKC = assay: BaF3 cell proliferation, CCK-8 assay; settings: Mus musculus, BaF3, 72 h, read-out: IC50 (nM ± SD) WT EML4-TRKC
Experimental: as §1, §2

BaF3 ETV6-TRKC = assay: BaF3 cell proliferation, CCK-8 assay; settings: Mus musculus, BaF3, 72 h, read-out: IC50 (nM ± SD) WT ETV6-TRKC
Experimental: as §1, §2

BaF3 CD74-TRKA-G595R = assay: BaF3 cell proliferation, CCK-8 assay; settings: Mus musculus, BaF3, 72 h, read-out: IC50 (nM ± SD) Solvent Front CD74-TRKA-G595R
Experimental: as §1, §2

BaF3 ETV6-TRKB-G639R = assay: BaF3 cell proliferation, CCK-8 assay; settings: Mus musculus, BaF3, 72 h, read-out: IC50 (nM ± SD) Solvent Front ETV6-TRKB-G639R
Experimental: as §1, §2

BaF3 ETV6-TRKC-G623R = assay: BaF3 cell proliferation, CCK-8 assay; settings: Mus musculus, BaF3, 72 h, read-out: IC50 (nM ± SD) Solvent Front ETV6-TRKC-G623R
Experimental: as §1, §2

BaF3 CD74-TRKA-F589L = assay: BaF3 cell proliferation, CCK-8 assay; settings: Mus musculus, BaF3, 72 h, read-out: IC50 (nM ± SD) Gatekeeper CD74-TRKA-F589L
Experimental: as §1, §2

BaF3 ETV6-TRKB-F633L = assay: BaF3 cell proliferation, CCK-8 assay; settings: Mus musculus, BaF3, 72 h, read-out: IC50 (nM ± SD) Gatekeeper ETV6-TRKB-F633L
Experimental: as §1, §2

BaF3 ETV6-TRKC-F617L = assay: BaF3 cell proliferation, CCK-8 assay; settings: Mus musculus, BaF3, 72 h, read-out: IC50 (nM ± SD) Gatekeeper ETV6-TRKC-F617L
Experimental: as §1, §2

BaF3 CD74-TRKA-G667C = assay: BaF3 cell proliferation, CCK-8 assay; settings: Mus musculus, BaF3, 72 h, read-out: IC50 (nM ± SD) xDFG CD74-TRKA-G667C
Experimental: as §1, §2

BaF3 ETV6-TRKB-G709C = assay: BaF3 cell proliferation, CCK-8 assay; settings: Mus musculus, BaF3, 72 h, read-out: IC50 (nM ± SD) xDFG ETV6-TRKB-G709C
Experimental: as §1, §2

BaF3 ETV6-TRKC-G696C = assay: BaF3 cell proliferation, CCK-8 assay; settings: Mus musculus, BaF3, 72 h, read-out: IC50 (nM ± SD) xDFG ETV6-TRKC-G696C
Experimental: as §1, §2

[4] = tested on: BaF3 cells with gatekeeper mutations (TRKA^F589L, TRKB^F663L, TRKC^F617L); assay: BaF3 cell proliferation, summary over gatekeeper lines; settings: Mus musculus, BaF3, read-out: IC50 in cells with gatekeeper mutations
Experimental: as §1, §2

[5] = tested on: BaF3 cells with solvent front mutations (TRKA^G595R, TRKB^G639R, TRKC^G623R); assay: BaF3 cell proliferation, summary over solvent front lines; settings: Mus musculus, BaF3, read-out: IC50 range in cells with solvent front mutations
Experimental: as §1, §2

In the case of `Cc1ccc(C(=O)Nc2ccc(CN3CCN(C)CC3)c(C(F)(F)F)c2)cc1C#Cc1cnc2cccnn12` [ponatinib], the “activity against TRKA^G667C mutant” value (TRKA^G667C mutant) is reported as “good activity” and the “activity against wild-type TRKA/B/C or solvent-front mutations” value [1] is reported as “weak activity”.

With `O=C(Nc1cnn2ccc(N3CCC[C@@H]3c3cc(F)ccc3F)nc12)N1CC[C@H](O)C1` [Larotrectinib] the “inhibition of the activation of TRKs-xDGF mutants” value [2] was “limited inhibition”, the “effect on cell cycle or apoptosis” value [3] was “little effect” and the IC50 (Parental BaF3 (+IL3)) was greater than 10000 nM. For the same compound, the IC50 (BaF3 MPRIP-TRKA; Mus musculus, BaF3, 72 h) was 4.8 ± 1.2 nM, the IC50 (BaF3 CD74-TRKA) was 8 ± 0.8 nM and the IC50 (BaF3 QKI-TRKB) was 11.4 ± 4.2 nM. The IC50 (BaF3 ETV6-TRKB) was 24 ± 4.2 nM, the IC50 (BaF3 EML4-TRKC) was 21.7 ± 6.9 nM and the IC50 (BaF3 ETV6-TRKC) was 11.2 ± 2.8 nM. For the same compound, the IC50 (BaF3 CD74-TRKA-G595R) was 1110 ± 251 nM, the IC50 (BaF3 ETV6-TRKB-G639R) was 1900 ± 778 nM and the IC50 (BaF3 ETV6-TRKC-G623R) was 1270 ± 165 nM. The IC50 (BaF3 CD74-TRKA-F589L) was 423 ± 92.6 nM, the IC50 (BaF3 ETV6-TRKB-F633L) was 1400 ± 214 nM and the IC50 (BaF3 ETV6-TRKC-F617L) was 513 ± 156 nM. It also gave an IC50 (BaF3 CD74-TRKA-G667C) of 313 ± 48.5 nM, an IC50 (BaF3 ETV6-TRKB-G709C) of 1630 ± 821 nM and an IC50 (BaF3 ETV6-TRKC-G696C) of 769 ± 325 nM. It also gave an IC50 [4] greater than 423 nM.

In the case of `COc1cc2nccc(Oc3ccc(NC(=O)C4(C(=O)Nc5ccc(F)cc5)CC4)cc3)c2cc1OC` [cabozantinib], the “activity against TRKA^G667C mutant” value (TRKA^G667C mutant) is reported as “good activity” and the “activity against wild-type TRKA/B/C or solvent-front mutations” value [1] is reported as “weak activity”.

Work on `C[C@H]1CNC(=O)c2cnn3ccc(nc23)N[C@H](C)c2cc(F)ccc2O1` [Repotrectinib] yielded an IC50 (Parental BaF3 (+IL3)) of 906 ± 69 nM, an IC50 (BaF3 MPRIP-TRKA; CCK-8, 72 h) of 1.1 ± 0.2 nM and an IC50 (BaF3 QKI-TRKB) of 0.8 ± 0.7 nM. The IC50 (BaF3 ETV6-TRKB) was 2.3 ± 0.5 nM, the IC50 (BaF3 EML4-TRKC) was 2.7 ± 1.6 nM and the IC50 (BaF3 ETV6-TRKC) was 2.1 ± 0.9 nM. It also gave an IC50 (BaF3 ETV6-TRKC-G623R) of 14.6 ± 4.7 nM, an IC50 (BaF3 ETV6-TRKB-F633L) of 4.9 ± 2.2 nM and an IC50 (BaF3 ETV6-TRKC-F617L) of 2.1 ± 1.1 nM. The IC50 (BaF3 ETV6-TRKB-G709C) was 89.7 ± 38.8 nM and the IC50 (BaF3 ETV6-TRKC-G696C) was 42.9 ± 33.6 nM.

With `CN1CCN(c2ccc(C(=O)Nc3n[nH]c4ccc(Cc5cc(F)cc(F)c5)cc34)c(NC3CCOCC3)c2)CC1` [Entrectinib] the IC50 (Parental BaF3 (+IL3)) was 2340 ± 202 nM, the IC50 (BaF3 MPRIP-TRKA; Mus musculus, BaF3, 72 h) was 1.6 ± 0.4 nM and the IC50 (BaF3 CD74-TRKA) was 4.4 ± 1 nM. The IC50 (BaF3 QKI-TRKB) was 4.8 ± 1.6 nM, the IC50 (BaF3 ETV6-TRKB) was 8 ± 3.1 nM and the IC50 (BaF3 EML4-TRKC) was 5.2 ± 1.6 nM. It also gave an IC50 (BaF3 ETV6-TRKC) of 7.8 ± 4.2 nM, an IC50 (BaF3 ETV6-TRKB-G639R) of 529 ± 130 nM and an IC50 (BaF3 ETV6-TRKC-G623R) of 617 ± 69.8 nM. For the same compound, the IC50 (BaF3 CD74-TRKA-F589L) was 2.1 ± 0.3 nM, the IC50 (BaF3 ETV6-TRKB-F633L) was 13 ± 3.6 nM and the IC50 (BaF3 ETV6-TRKC-F617L) was 4.6 ± 2.8 nM. The IC50 (BaF3 CD74-TRKA-G667C) was 33.2 ± 3.2 nM, the IC50 (BaF3 ETV6-TRKB-G709C) was 285 ± 92.4 nM and the IC50 (BaF3 ETV6-TRKC-G696C) was 124 ± 60.4 nM.

With `C[C@@H]1CCc2ncc(F)cc2[C@H]2CCCN2c2ccn3ncc(c3n2)C(=O)N1` [Selitrectinib] the “inhibition of the activation of TRKs-xDGF mutants” value [2] was “limited inhibition”, the “effect on cell cycle or apoptosis” value [3] was “little effect” and the IC50 (Parental BaF3 (+IL3)) was greater than 10000 nM. The IC50 (BaF3 MPRIP-TRKA; Mus musculus, BaF3, 72 h) was 1.1 ± 0.4 nM, the IC50 (BaF3 CD74-TRKA) was 2.5 ± 0.2 nM and the IC50 (BaF3 QKI-TRKB) was 1.5 ± 0.4 nM. It also gave an IC50 (BaF3 ETV6-TRKB) of 4.9 ± 1.4 nM, an IC50 (BaF3 EML4-TRKC) of 2.1 ± 0.2 nM and an IC50 (BaF3 ETV6-TRKC) of 1.7 ± 1.1 nM. The IC50 (BaF3 CD74-TRKA-G595R) was 13.6 ± 3.3 nM, the IC50 (BaF3 ETV6-TRKB-G639R) was 11.4 ± 2.2 nM and the IC50 (BaF3 ETV6-TRKC-G623R) was 9.6 ± 1.2 nM. It also gave an IC50 (BaF3 CD74-TRKA-F589L) of 17.3 ± 2.2 nM, an IC50 (BaF3 ETV6-TRKB-F633L) of 55.8 ± 10.8 nM and an IC50 (BaF3 ETV6-TRKC-F617L) of 20.8 ± 7.9 nM. For the same compound, the IC50 (BaF3 CD74-TRKA-G667C) was 66.3 ± 13 nM, the IC50 (BaF3 ETV6-TRKB-G709C) was 168 ± 73 nM and the IC50 (BaF3 ETV6-TRKC-G696C) was 98.4 ± 55 nM. It also gave an IC50 [5] of 9.4 to 33.7 nM.

From publication PMC9570838, “JND4135, a New Type II TRK Inhibitor, Overcomes TRK xDFG and Other Mutation Resistance In Vitro and In Vivo” (Molecules, 2022)
